pIC50: −log10 of the molar value.
molecular target: T1, VLA4 (Homo sapiens, UniProt P05556+P13612); test: Inhibition of VLA4-dependent adhesion to BSA-CS1 (labelled Ramos cells); assay type: cell-based; settings: binding of BCECF-AM labelled Ramos cells to CS1 peptide-coated wells, 2 mM MnCl2, 30 minutes at room temperature; IC50 range
T1 construct: endogenous in cells; host or cells: Ramos cells
From the text: For example, the cell adhesion inhibitory activity of these compounds may be measured by determining the concentration of inhibitor required to block the binding of VLA-4-expressing cells to fibronectin- or CS1-coated plates. In this assay microtiter wells are coated with either fibronectin (containing the CS-1 sequence) or CS-1. If CS-1 is used, it must be conjugated to a carrier protein, such as bovine serum albumin, in order to bind to the wells. Once the wells are coated, varying concentrations of the test compound are then added together with appropriately labelled, VLA-4-expressing cells. Alternatively, the test compound may be added first and allowed to incubate with the coated wells prior to the addition of the cells. The cells are allowed to incubate in the wells for at least 30 minutes. Following incubation, the wells are emptied and washed. Inhibition of binding is measured by quantitating the fluorescence or radioactivity bound to the plate for each of the various concentrations of test compound, as well as for controls containing no test compound.
VLA-4-expressing cells that may be utilized in this assay include Ramos cells, Jurkat cells, A375 melanoma cells, as well as human peripheral blood lymophocytes (PBLs). The cells used in this assay may be fluorescently or radioactively labelled.
This assay was used to assess the potency of VLA4-directed inhibitory compounds of this invention.
We dissolved BSA-SMCC (Pierce Chemical, Rockford, Ill.; Catalog # 77115) in H2O at a concentration of 10 mg/mL. [SEQ ID NO:4]: […](“Cys-Tyr-CS1 peptide”), which we synthesized by conventional solid phase chemistry and purified by HPLC, was dissolved in 10 mM HEPES pH 5, 50 mM NaCl and 0.1 mM EDTA also at a concentration of 10 mg/mL. We then mixed 500 μL of BSA-SMCC, 250 μL of Cys-Tyr-CS1 peptide and 75 μL of […] and allowed the conjugation reaction to proceed for 30 minutes. We stopped the reaction by adding 1 μL of beta-mercaptoethanol. Samples were analyzed for cross-linking by SDS-PAGE. This reaction produced multiple molecules of the Cys-Tyr-CS1 peptide conjugate to each BSA molecule.
We coated the wells of a Linbro titertek polystyrene 96-well flat bottom plate (Flow Laboratories, Maclean, Va.; catalog #76-231-05) with 100 μL of the above-described BSA-CS1 solution diluted to 1 μg/mL in 0.05 M NaHCO3 (15 mM NaHCO3, 35 mM Na2CO3) pH 9.2. Some wells were not coated with CS1 in order to assess non-specific cell binding (NSB). The plate was then incubated overnight at 4° C.
Following this incubation, the contents of the wells were removed by inverting and blotting the plate. All of the wells were then blocked with 100 μL of 1% BSA in PBS, 0.02% NaN3, for a minimum of one hour at room temperature.
3. Preparation of Fluorescently Labelled Ramos Cells Ramos cells are grown, maintained and labelled in RPMI 1640 culture medium containing 1% BSA. Just prior to running the assay, we added 2′,7′-bis-(2-carboxyethyl)5 (and -6) carboxyfluorescein acetoxymethyl ester (“BCECF-AM”; Molecular Probes Inc., Eugene, Oreg.; catalog #B-1150) to a final concentration of 2 μM to a culture of Ramos cells (4×10^6 cells/mL). We incubated the cells for 20 minutes at 37° C.
Following labelling, the cells were washed twice in assay buffer (24 mM TRIS, 137 mM NaCl, 2.7 mM KCl, pH 7.4, containing 0.1% BSA and 2 mM glucose) to remove any cations originating from the culture medium. The cells were then resuspended in assay buffer to 4×10^6 cells/mL and 2 mM MnCl2 was added to upregulate VLA4 on the surface of the cells.
Immediately prior to running the assay, we removed the BSA blocking solution from the 96-well plates and washed the wells with 100 μL of assay buffer. We then added to each well 25 μL of test cell adhesion inhibitory compound at 2× the final concentration and 25 μL of the labelled Ramos cells. Final concentrations were selected across a range of anticipated IC50s, usually between 0.01 nM–10 μM. […]

T1 sequence (P13612 34-1032): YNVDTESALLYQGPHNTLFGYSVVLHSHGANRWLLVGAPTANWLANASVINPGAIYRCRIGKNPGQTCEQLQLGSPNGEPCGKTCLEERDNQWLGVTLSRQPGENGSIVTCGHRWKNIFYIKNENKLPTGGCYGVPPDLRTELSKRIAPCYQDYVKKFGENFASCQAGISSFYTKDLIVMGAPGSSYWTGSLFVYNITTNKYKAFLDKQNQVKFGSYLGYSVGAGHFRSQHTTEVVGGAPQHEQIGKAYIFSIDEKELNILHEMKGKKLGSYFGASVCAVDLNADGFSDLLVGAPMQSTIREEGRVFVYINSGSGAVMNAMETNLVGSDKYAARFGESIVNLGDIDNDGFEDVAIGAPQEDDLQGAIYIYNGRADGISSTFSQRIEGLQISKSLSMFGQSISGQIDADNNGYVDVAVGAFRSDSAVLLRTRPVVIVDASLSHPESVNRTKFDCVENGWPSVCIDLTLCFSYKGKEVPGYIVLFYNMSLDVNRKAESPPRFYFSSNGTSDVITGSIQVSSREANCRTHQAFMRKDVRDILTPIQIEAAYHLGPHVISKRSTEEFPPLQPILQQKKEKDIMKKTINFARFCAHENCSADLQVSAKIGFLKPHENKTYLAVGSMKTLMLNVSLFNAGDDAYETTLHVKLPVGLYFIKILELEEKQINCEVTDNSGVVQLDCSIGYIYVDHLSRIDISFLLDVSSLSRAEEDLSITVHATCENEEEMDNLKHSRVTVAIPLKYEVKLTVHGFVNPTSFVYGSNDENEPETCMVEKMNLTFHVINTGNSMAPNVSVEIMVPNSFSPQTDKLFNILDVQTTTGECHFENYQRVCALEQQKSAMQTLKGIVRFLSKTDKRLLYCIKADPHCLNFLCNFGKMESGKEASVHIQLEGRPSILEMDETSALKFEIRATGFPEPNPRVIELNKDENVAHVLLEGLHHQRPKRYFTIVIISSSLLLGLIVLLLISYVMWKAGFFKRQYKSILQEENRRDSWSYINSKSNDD
T1 sequence (P05556 21-798): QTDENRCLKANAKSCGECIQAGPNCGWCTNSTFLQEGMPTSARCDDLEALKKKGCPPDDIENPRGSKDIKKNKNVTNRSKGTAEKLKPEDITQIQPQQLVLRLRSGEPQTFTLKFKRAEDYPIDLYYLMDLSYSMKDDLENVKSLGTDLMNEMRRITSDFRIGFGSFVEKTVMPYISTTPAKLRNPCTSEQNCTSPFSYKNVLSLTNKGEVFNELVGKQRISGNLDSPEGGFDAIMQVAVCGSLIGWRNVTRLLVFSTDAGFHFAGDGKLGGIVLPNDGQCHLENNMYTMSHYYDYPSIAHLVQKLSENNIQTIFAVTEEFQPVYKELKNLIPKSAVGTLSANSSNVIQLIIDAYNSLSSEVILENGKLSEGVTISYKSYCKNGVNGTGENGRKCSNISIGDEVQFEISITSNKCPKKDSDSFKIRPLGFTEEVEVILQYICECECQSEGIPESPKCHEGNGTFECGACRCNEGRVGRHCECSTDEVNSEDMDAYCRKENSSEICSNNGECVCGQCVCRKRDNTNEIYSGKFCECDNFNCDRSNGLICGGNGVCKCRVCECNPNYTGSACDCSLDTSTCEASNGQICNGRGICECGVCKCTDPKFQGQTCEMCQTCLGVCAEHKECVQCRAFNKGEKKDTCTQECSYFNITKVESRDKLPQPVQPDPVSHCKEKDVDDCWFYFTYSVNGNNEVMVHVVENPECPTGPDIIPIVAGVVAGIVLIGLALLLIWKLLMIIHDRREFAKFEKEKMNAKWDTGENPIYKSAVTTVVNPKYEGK

Compared with `COc1ccc(C(CC(=O)O)NC(=O)C(CC(C)C)N(C)C(=O)Cc2ccc(NC(=O)Nc3ccccc3)cc2)cc1` (stereo not drawn) [compound 1193], `CC(C)CC(C(=O)NC(CC(=O)O)c1ccc2c(c1)OCO2)N(C)C(=O)Cc1ccc(NC(=O)Nc2ccccc2)cc1` (stereo not drawn) [compound 1055] is higher in pIC50: 5.00 to 7.30 for the first, over 7.30 for the second.

`CCC(C)C(NC(=O)Cc1ccc(NC(=O)Nc2ccccc2)cc1)C(=O)NC(CC(=O)O)c1ccccc1` (stereo not drawn) [compound 1131] and `CCC(C)C(NC(=O)Cc1ccc(NC(=O)Nc2ccccc2)cc1)C(=O)NC(CC(=O)O)c1ccc2c(c1)OCO2` (stereo not drawn) [compound 1133] fall in the same range of pIC50: 5.00 to 7.30 for the first, 5.00 to 7.30 for the second.

First: CC(C)CC(NC(=O)Cc1ccc(NC(=O)Nc2ccccc2[N+](=O)[O-])cc1)C(=O)NC(CC(=O)O)c1ccc2c(c1)OCO2 (stereo not drawn) [compound 1201]
Second: COc1ccccc1NC(=O)Nc1ccc(CC(=O)NC(CC(C)C)C(=O)NC(CC(=O)O)c2ccc3c(c2)OCO3)cc1 (stereo not drawn) [compound 1079]
The pIC50 of the first is lower: 5.00 to 7.30 for the first, over 7.30 for the second.

Compared with `CC(C)CC(C(=O)NC(CC(=O)O)c1ccccc1)N(C)C(=O)CCc1ccc(O)cc1` (stereo not drawn) [compound 1087], `CC(C)CC(NC(=O)Cc1ccc(O)cc1)C(=O)NC(CC(=O)O)c1ccccc1` (stereo not drawn) [compound 1091] is higher in pIC50: under 5.00 for the first, 5.00 to 7.30 for the second. The second is the more potent here.

`CSCCC(NC(=O)Cc1ccccc1)C(=O)NC(CC(=O)O)c1ccc2c(c1)OCO2` (stereo not drawn) [compound 1164] and `CC(C)CC(NC(=O)Cc1ccccc1)C(=O)NC(CC(=O)O)c1ccc2c(c1)OCO2` (stereo not drawn) [compound 1158] fall in the same range of pIC50: 5.00 to 7.30 for the first, 5.00 to 7.30 for the second.

Compared with `COc1ccc(C(CC(=O)O)NC(=O)C(CCSC)NC(=O)Cc2ccc(NC(=O)Nc3ccccc3)cc2)cc1` (stereo not drawn) [compound 1089], `COc1ccc(C(CC(=O)O)NC(=O)C(CC[S+](C)[O-])NC(=O)Cc2ccc(NC(=O)Nc3ccccc3)cc2)cc1` (stereo not drawn) [compound 1199] is lower in pIC50: over 7.30 for the first, 5.00 to 7.30 for the second. The first is the more potent here.

First: CC(C)CC(NC(=O)Cc1cccc(N)c1)C(=O)NC(CC(=O)O)c1ccccc1 (stereo not drawn) [compound 1030]
Second: CC(C)CC(NC(=O)Cc1ccccc1)C(=O)NC(CC(=O)O)c1ccc(Cl)cc1 (stereo not drawn) [compound 1115]
The pIC50 of the first is lower: under 5.00 for the first, 5.00 to 7.30 for the second. The second is the more potent here.

Compared with `O=C(O)CC(NC(=O)C(Cc1ccccc1)NC(=O)Cc1ccccc1)c1ccccc1` (stereo not drawn) [compound 1046], `O=C(O)CC(NC(=O)C(Cc1ccccc1)NC(=O)Cc1ccc(NC(=O)Nc2ccccc2)cc1)c1ccccc1` (stereo not drawn) [compound 1130] is higher in pIC50: under 5.00 for the first, 5.00 to 7.30 for the second.

First: CC(C)CC(NC(=O)Cc1cccc2ccccc12)C(=O)NC(CC(=O)O)c1ccccc1 (stereo not drawn) [compound 1021]
Second: CC(C)CC(NC(=O)CCCc1ccccc1)C(=O)NC(CC(=O)O)c1ccccc1 (stereo not drawn) [compound 1082]
The pIC50 of the first is higher: 5.00 to 7.30 for the first, under 5.00 for the second.

Compared with `CCCCC(NC(=O)Cc1ccccc1)C(=O)NC(CC(=O)O)c1ccccc1` (stereo not drawn) [compound 1039], `CC(C)CC(NC(=O)c1ccccc1)C(=O)NC(CC(=O)O)c1ccccc1` (stereo not drawn) [compound 1008] is lower in pIC50: 5.00 to 7.30 for the first, under 5.00 for the second.

`COc1ccc(C(CC(=O)O)NC(=O)C(CC(C)C)NC(=O)Cc2ccc(NC(=O)Nc3cccnc3)cc2)cc1OC` (stereo not drawn) [compound 1219] and `COc1ccc(C(CC(=O)O)NC(=O)C(CC(C)C)NC(=O)Cc2ccc(NC(=O)Nc3ccccn3)cc2)cc1OC` (stereo not drawn) [compound 1218] fall in the same range of pIC50: 5.00 to 7.30 for the first, 5.00 to 7.30 for the second.

First: CC(C)CC(NC(=O)Cc1cccc(NS(=O)(=O)c2ccccc2)c1)C(=O)NC(CC(=O)O)c1ccccc1 (stereo not drawn) [compound 1032]
Second: CC(C)CC(NC(=O)Cc1ccc(NS(=O)(=O)c2ccccc2)cc1)C(=O)NC(CC(=O)O)c1ccccc1 (stereo not drawn) [compound 1104]
The pIC50 of the first is lower: under 5.00 for the first, 5.00 to 7.30 for the second. The second is the more potent here.

Compared with `CC(C)CC(NC(=O)Cc1ccc(NC(=O)Nc2ccncc2)cc1)C(=O)NC(CC(=O)O)c1ccc2c(c1)OCO2` (stereo not drawn) [compound 1182], `CC(C)CC(NC(=O)Cc1ccc(NC(=O)Nc2ccccc2)cc1)C(=O)NC(CC(=O)O)c1ccc2c(c1)OCO2` (stereo not drawn) [compound 1050] is higher in pIC50: 5.00 to 7.30 for the first, over 7.30 for the second.

Compared with `COc1nc(CC(=O)NC(CC(C)C)C(=O)NC(CC(=O)O)c2ccc3c(c2)OCO3)ccc1NC(=O)Nc1ccccc1C` (stereo not drawn) [compound 1336], `CCNC(=O)Nc1ccc(CC(=O)NC(CC(C)C)C(=O)NC(CC(=O)O)c2ccc3c(c2)OCO3)cc1` (stereo not drawn) [compound 1077] is lower in pIC50: over 7.30 for the first, 5.00 to 7.30 for the second.

`CC(C)CC(NC(=O)Cc1ccc([N+](=O)[O-])cc1)C(=O)NC(CC(=O)O)c1ccccc1` (stereo not drawn) [compound 1093] and `CC(C)CC(NC(=O)Cc1ccc(O)c([N+](=O)[O-])c1)C(=O)NC(CC(=O)O)c1ccccc1` (stereo not drawn) [compound 1112] cannot be ordered by pIC50: under 5.00 for the first, under 5.00 for the second.

First: CC(C)CC(NC(=O)Cc1ccc(NC(=O)N2CCOCC2)cc1)C(=O)NC(CC(=O)O)c1ccc2c(c1)OCO2 (stereo not drawn) [compound 1198]
Second: CC(C)CC(NC(=O)Cc1ccc(O)cc1)C(=O)NC(CC(=O)O)c1ccc2c(c1)OCO2 (stereo not drawn) [compound 1006]
The pIC50 of the first is lower: under 5.00 for the first, 5.00 to 7.30 for the second. The second is the more potent here.

First: COc1cc(CC(=O)NC(CC(C)C)C(=O)NC(CC(=O)O)c2ccccc2)cc(OC)c1O (stereo not drawn) [compound 1111]
Second: COc1ccc(C(CC(=O)O)NC(=O)C(CC(C)C)NC(=O)Cc2ccccc2)cc1 (stereo not drawn) [compound 1178]
The pIC50 of the first is lower: under 5.00 for the first, 5.00 to 7.30 for the second.

First: CC(C)CC(NC(=O)Cc1ccc(O)cc1)C(=O)NC(CC(=O)O)c1cccnc1 (stereo not drawn) [compound 1148]
Second: CC(C)CC(NC(=O)Cc1ccc(NC(=O)c2ccccc2)cc1)C(=O)NC(CC(=O)O)c1ccccc1 (stereo not drawn) [compound 1105]
The pIC50 of the first is lower: under 5.00 for the first, 5.00 to 7.30 for the second.

`CC(C)CC(NC(=O)Cc1ccc(NC(=O)c2ccccc2N)cc1)C(=O)NC(CC(=O)O)c1ccccc1` (stereo not drawn) [compound 1028] and `CC(C)CC(NC(=O)Cc1ccc(NC(=O)c2ccccc2)cc1)C(=O)NC(CC(=O)O)c1ccccc1` (stereo not drawn) [compound 1015] fall in the same range of pIC50: 5.00 to 7.30 for the first, 5.00 to 7.30 for the second.

First: CC(C)CC(NC(=O)Cc1ccc(NC(=O)Nc2ccccc2)cc1)C(=O)NC(CC(=O)O)c1ccc2c(c1)CCC2 (stereo not drawn) [compound 1128]
Second: COc1cccc(C(CC(=O)O)NC(=O)C(CC(C)C)NC(=O)Cc2ccc(NC(=O)Nc3ccccc3)cc2)c1 (stereo not drawn) [compound 1072]
The pIC50 of the first is lower: 5.00 to 7.30 for the first, over 7.30 for the second. The second is the more potent here.

`CC(C)CC(NC(=O)Cc1ccc(Nc2ncc[nH]2)cc1)C(=O)NC(CC(=O)O)c1ccc2c(c1)OCO2` (stereo not drawn) [compound 1390] and `COc1ccc(C(CC(=O)O)NC(=O)C(CC(C)C)NC(=O)Cc2ccc(NC(=O)Nc3ccccn3)cc2)cc1` (stereo not drawn) [compound 1194] fall in the same range of pIC50: 5.00 to 7.30 for the first, 5.00 to 7.30 for the second.

First: COc1ccc(C(CC(=O)O)NC(=O)C(CC(C)C)NC(=O)Cc2ccc(NC(=O)Nc3ccccc3OC)cc2)cc1 (stereo not drawn) [compound 1192]
Second: COc1ccc(C(CC(=O)O)NC(=O)C(CC(C)C)NC(=O)Cc2ccc(NC(=O)Nc3ccccc3C(C)C)cc2)cc1 (stereo not drawn) [compound 1207]
The pIC50 of the first is higher: over 7.30 for the first, under 5.00 for the second. The first is the more potent here.

First: CNC(=O)Nc1ccccc1C(=O)Nc1ccc(CC(=O)NC(CC(C)C)C(=O)NC(CC(=O)O)c2ccccc2)cc1 (stereo not drawn) [compound 1029]
Second: CC(C)(C)OC(=O)NCC(NC(=O)Cc1ccc(NC(=O)Nc2ccccc2)cc1)C(=O)NC(CC(=O)O)c1ccccc1 (stereo not drawn) [compound 1134]
The pIC50 of the first is lower: under 5.00 for the first, 5.00 to 7.30 for the second.

Compared with `COc1ccc(C(CC(=O)O)NC(=O)C(CCSC)NC(=O)Cc2ccc(NC(=O)Nc3ccccc3C)cc2)cc1` (stereo not drawn) [compound 1238], `O=C(O)CC(NC(=O)C(CC(=O)N1CCSCC1)NC(=O)Cc1ccc(NC(=O)Nc2ccccc2)cc1)c1ccc2c(c1)OCO2` (stereo not drawn) [compound 1176] is lower in pIC50: over 7.30 for the first, 5.00 to 7.30 for the second.

Compared with `CC(C)CC(NC(=O)c1c[nH]c2ccccc12)C(=O)NC(CC(=O)O)c1ccccc1` (stereo not drawn) [compound 1014], `CC(C)CC(NC(=O)Nc1ccccc1)C(=O)NC(CC(=O)O)c1ccccc1` (stereo not drawn) [compound 1086] is higher in pIC50: under 5.00 for the first, 5.00 to 7.30 for the second.

With `CC(C)CC(NC(=O)CCCNC(=O)Nc1ccccc1)C(=O)NC(CC(=O)O)c1ccccc1` (stereo not drawn) [compound 1187] the pIC50 was under 5.00.

Reference: patent US7001921B1, “Cell adhesion inhibitors” (Biogen Idec MA Inc., priority 1995, dated 2006)
